# Patent US20100041597A1, “PEPTIDES TARGETED TO PROTEIN KINASE C ISOFORMS AND USES THEREOF” (priority 2005, published 2010)
# Key:
# [1] = In vitro toxicity test (fluorimetric DNA assay, Hoechst); format: cell-based, human; conditions: human, IMR-32 neuroblastoma cells, with pinocytic endocytosis reagent, read-out: % survival
# Method: In vitro cytotoxicity testing of the peptides PRE 3, PRE 4 and PRE 5 (see Table 3) was conducted following the general protocol outlined below (modified from “Fluorimetric DNA assay for cell growth estimation” Rao J, Otto W., Analytical Biochem. 207:186-192, 1992).
# The assay was performed in 96 well plates, with 3,000 IMR-32 neuroblastoma cells seeded per well and 8 replicas were performed per treatment. The cells were pre-treated with either plain medium and a pinocytic endocytosis reagent (Molecular Probes) or medium containing the PRE under evaluation and the pinocytic endocytosis reagent. The cells were allowed to grow under conventional conditions for 3 days. The DNA content of each well was assessed at 24, 48 and 72 hours using Hoechst reagent according to standard procedures. The fluorescence intensity per well was measured using the plate reader “CytoFluor 2350” from Millipore. Excitation was 360 nm and emission was 460 nm. The number of cells is directly correlated to the DNA content.
# The results are shown in Tables 11-13 as the average relative fluorescence intensity measured for the 8 replica wells, as well as the percentage of survival as compared with matching untreated controls.
# PKC-βII = PKC-βII (Homo sapiens, UniProt P05771); test: In vitro competition with anti-PKC-βII antibody, Protocol B, IMR-32 cells; format: binding; set-up: PRE 3 and PRE 4 in IMR-32 Neuroblastoma Cells: Protocol B; endogenous in cells; host or cells: IMR-32; conditions: PKC-βII; for Band Intensity: control band intensity 98.6, Table 9
# Method: (§1) Peptides PRE 3 and PRE 4 (see Table 3) were tested for their ability to interfere with the binding of isoform-specific polyclonal antibodies (Santa Cruz Biotechnology, Inc.) to PKC-α, PKC-βI or PKC-βII using the general protocol described in Example 3.
# PKC-α [2] = target: T1, PKC-α (Homo sapiens, UniProt P17252); test: In vitro competition with anti-PKC-α antibody on blotted cell lysate, Protocol A, IMR-32 cells; format: binding; set-up: subcellular localisation of endogenous PKC-α in IMR-32 cells; endogenous in cells; host or cells: IMR-32
# Method: The ability of the peptides to interfere with the binding of a PKC-α-specific monoclonal antibody to PKC-α was determined using the following protocol.
# Cell lysates from either IMR-32 (human neuroblastoma) cells or C6Cx43 cells (rat glioma transfected cells overexpressing connexin 43) were obtained using standard protocols and the proteins of the lysate were separated by SDS PAGE electrophoresis and electrotransferred onto a nitrocellulose membrane. […] A primary polyclonal antibody specific for PKC-α (Santa Cruz Biotechnology, Inc., CA) was then added (15 μg/ml) and the membrane incubated for a further 45 minutes. Finally, the primary antibody was detected with a secondary antibody conjugated to alkaline phosphatase using standard procedures. The intensity of the band corresponding to PKC-α was assessed by scanning and densitometry using the Gel-Pro software (Media Cybernetics) to obtain relative band intensities (average of 3 replicas). Control assays were conducted as described above except that blocking buffer without peptide was used.
# The results are expressed as relative band intensity and as a percentage of the intensity of the corresponding band in the control assay (“Relative intensity (%)”). “% inhibition” relates to the percentage of the PKC-α band that is inaccessible to the antibody.
# PKC-α [3] = target: T1, PKC-α; test: In vitro competition with anti-PKC-α antibody, Protocol B (peptide added to cell extract before electrophoresis), IMR-32 cells; format: binding; set-up: subcellular localisation of endogenous PKC-α in IMR-32 cells; endogenous in cells; host or cells: IMR-32; conditions: for Inhibition (%) / Relative Intensity (%): Table 9
# Method: as §1
# PKC-α [4] = target: T1, PKC-α; test: Subcellular localisation of PKC-α in IMR-32 cells; format: cell-based; set-up: subcellular localisation of endogenous PKC-α in IMR-32 cells; endogenous in cells; host or cells: IMR-32; conditions: 10 mg/ml, pinocytic endocytosis
# Method: Peptides PRE 3 or PRE 4 (10 mg/ml) were introduced into human neuroblastoma cells (IMR-32) by pinocytic endocytosis. The cells were fixed and stained with rabbit PKC-A primary antibody and anti-rabbit Alexa-488 or Alexa-800 secondary antibody.
# In most of the cells PKC-α can be seen to be located in the cytoplasm, around the nucleus and at the plasma membrane (where it becomes activated).
# Sequence of PKC-βII (P05771 1-673 isoform P05771-2): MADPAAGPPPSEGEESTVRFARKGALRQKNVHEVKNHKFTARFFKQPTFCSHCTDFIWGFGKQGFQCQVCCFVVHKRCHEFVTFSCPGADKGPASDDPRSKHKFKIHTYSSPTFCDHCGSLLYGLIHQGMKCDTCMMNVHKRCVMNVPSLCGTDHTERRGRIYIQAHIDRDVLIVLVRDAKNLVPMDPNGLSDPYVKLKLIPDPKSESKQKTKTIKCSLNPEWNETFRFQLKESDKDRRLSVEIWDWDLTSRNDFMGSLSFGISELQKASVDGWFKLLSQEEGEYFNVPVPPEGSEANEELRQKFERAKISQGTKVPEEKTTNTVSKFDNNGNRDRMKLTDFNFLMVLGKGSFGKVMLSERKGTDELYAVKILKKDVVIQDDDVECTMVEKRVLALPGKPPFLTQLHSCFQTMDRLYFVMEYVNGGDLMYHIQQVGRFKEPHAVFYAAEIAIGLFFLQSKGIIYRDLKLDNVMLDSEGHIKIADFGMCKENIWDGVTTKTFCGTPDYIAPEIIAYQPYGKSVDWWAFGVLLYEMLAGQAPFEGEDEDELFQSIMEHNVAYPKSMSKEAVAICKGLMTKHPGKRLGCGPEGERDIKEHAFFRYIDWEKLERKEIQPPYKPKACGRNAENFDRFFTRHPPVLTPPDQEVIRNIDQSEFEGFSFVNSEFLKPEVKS
substance,measurement,setting,value
Ac-AKGIQEVKGGDAQNLIGISI-NH2 [PRE 3],"viability at 24 h, 2500 µg/mL","[1]; 2.5 mg/ml, 24 h",127%
same,"viability at 48 h, 2500 µg/mL","[1]; 2.5 mg/ml, 48 h",150%
same,"viability at 72 h, 2500 µg/mL","[1]; 2.5 mg/ml, 72 h",123%
same,"viability at 24 h, 10000 µg/mL","[1]; 10 mg/ml, 24 h",120%
same,"viability at 48 h, 10000 µg/mL","[1]; 10 mg/ml, 48 h",129%
same,"viability at 72 h, 10000 µg/mL","[1]; 10 mg/ml, 72 h",117%
same,inhibition at 0.1 mg,"PKC-βII; 100 μg, Table 9",100%
same,remaining activity at 0.1 mg,"PKC-βII; 100 μg, Table 9, read-out: Relative Intensity (%)",0%
same,Band Intensity,PKC-βII; 100 μg,0.0
same,inhibition at 0.2 mg,"PKC-βII; 200 μg, Table 9",100%
same,remaining activity at 0.2 mg,"PKC-βII; 200 μg, Table 9, read-out: Relative Intensity (%)",0%
same,Band Intensity,PKC-βII; 200 μg,0.0
same,inhibition at 0.3 mg,"PKC-βII; 300 μg, Table 9",100%
same,remaining activity at 0.3 mg,"PKC-βII; 300 μg, Table 9, read-out: Relative Intensity (%)",0%
same,Band Intensity,PKC-βII; 300 μg,0.0
same,Band Intensity,"PKC-α [2]; 75 μg, IMR-32 Cells, Table 5",0.889
same,inhibition at 0.075 mg,"PKC-α [2]; 75 μg, IMR-32 Cells, Table 5",0.7%
same,remaining activity at 0.075 mg,"PKC-α [2]; 75 μg, IMR-32 Cells, Table 5, read-out: Relative Intensity (%)",99.3%
same,Band Intensity,"PKC-α [2]; 300 μg, IMR-32 Cells, Table 5",0.922
same,inhibition at 0.3 mg,"PKC-α [2]; 300 μg, IMR-32 Cells, Table 5",0%
same,remaining activity at 0.3 mg,"PKC-α [2]; 300 μg, IMR-32 Cells, Table 5, read-out: Relative Intensity (%)",103%
same,Band Intensity,"PKC-α [2]; 600 μg, IMR-32 Cells, Table 5",0.888
same,inhibition at 0.6 mg,"PKC-α [2]; 600 μg, IMR-32 Cells, Table 5",0%
same,remaining activity at 0.6 mg,"PKC-α [2]; 600 μg, IMR-32 Cells, Table 5, read-out: Relative Intensity (%)",99.2%
same,Band Intensity,"PKC-α [2]; 3.75 mg, IMR-32 Cells, Table 5",0.600
same,remaining activity at 3.75 mg,"PKC-α [2]; 3.75 mg, IMR-32 Cells, Table 5, read-out: Relative Intensity (%)",102%
same,Band Intensity,"PKC-α [2]; 5.25 mg, IMR-32 Cells, Table 5",0.603
same,remaining activity at 5.25 mg,"PKC-α [2]; 5.25 mg, IMR-32 Cells, Table 5, read-out: Relative Intensity (%)",102%
same,Band Intensity,"PKC-α [2]; 7.5 mg, IMR-32 Cells, Table 5",0.609
same,inhibition at 7.5 mg,"PKC-α [2]; 7.5 mg, IMR-32 Cells, Table 5",0%
same,remaining activity at 7.5 mg,"PKC-α [2]; 7.5 mg, IMR-32 Cells, Table 5, read-out: Relative Intensity (%)",103%
same,effect on antibody binding to PKC-α,PKC-α [2]; Protocol A,did not show an effect on antibody binding
same,effect on antibody binding to PKC-α,PKC-α [3],effectively interfered with PKC-α antibody binding to PKC-α
same,Band Intensity,"PKC-α [3]; 100 μg, PKC-α, IMR-32, Table 7",0.0
same,inhibition at 0.1 mg,"PKC-α [3]; 100 μg, PKC-α, IMR-32, Table 7",100%
same,remaining activity at 0.1 mg,"PKC-α [3]; 100 μg, PKC-α, IMR-32, Table 7, read-out: Relative Intensity (%)",0%
same,Inhibition (%),"PKC-α [3]; 100 μg, PKC-α",100.0%
same,Relative Intensity (%),"PKC-α [3]; 100 μg, PKC-α",0.0%
same,Band Intensity,"PKC-α [3]; 100 μg, PKC-α, control band intensity 302.5, Table 9",0.0
same,Band Intensity,"PKC-α [3]; 200 μg, PKC-α, IMR-32, Table 7",0.0
same,inhibition at 0.2 mg,"PKC-α [3]; 200 μg, PKC-α, IMR-32, Table 7",100%
same,remaining activity at 0.2 mg,"PKC-α [3]; 200 μg, PKC-α, IMR-32, Table 7, read-out: Relative Intensity (%)",0%
same,Inhibition (%),"PKC-α [3]; 200 μg, PKC-α",100.0%
same,Relative Intensity (%),"PKC-α [3]; 200 μg, PKC-α",0.0%
same,Band Intensity,"PKC-α [3]; 200 μg, PKC-α, control band intensity 302.5, Table 9",0.0
same,Band Intensity,"PKC-α [3]; 300 μg, PKC-α, IMR-32, Table 7",0.0
same,inhibition at 0.3 mg,"PKC-α [3]; 300 μg, PKC-α, IMR-32, Table 7",100%
same,remaining activity at 0.3 mg,"PKC-α [3]; 300 μg, PKC-α, IMR-32, Table 7, read-out: Relative Intensity (%)",0%
same,Inhibition (%),"PKC-α [3]; 300 μg, PKC-α",100.0%
same,Relative Intensity (%),"PKC-α [3]; 300 μg, PKC-α",0.0%
same,Band Intensity,"PKC-α [3]; 300 μg, PKC-α, control band intensity 302.5, Table 9",0.0
same,effect on subcellular localisation of PKC-α,PKC-α [4],does not alter the subcellular localisation of PKC-α
